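Five compound concentrations were applied to cells in 96-well plates for 48 hours; endpoints were derived by simple linear interpolation of the resulting dose-response curve. Abbreviation: GI50, concentration required for 50% inhibition of growth.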 Calls of active or inactive are those of the source. Rule as the data show it: active = GI50 up to about 1.1 µM and inactive = higher.
Key:
Test in all cases: inhibition of tumour cell growth, NCI panel, 48 h
CAKI-1 = system: CAKI-1
COLO 205 = system: COLO 205
EKVX = system: EKVX
HCC 2998 = system: HCC 2998
HL-60 = system: HL-60
HOP-92 = system: HOP-92
K562 = system: K562
KM12 = system: KM12
Malme-3M = system: Malme-3M
NCI-H23 = system: NCI-H23
NCI-H522 = system: NCI-H522
OVCAR-5 = system: OVCAR-5
SF-268 = system: SF-268
SK-MEL-2 = system: SK-MEL-2
SK-OV-3 = system: SK-OV-3
SNB-19 = system: SNB-19
U-251 = system: U-251
UACC-257 = system: UACC-257
UACC-62 = system: UACC-62
UO-31 = system: UO-31

## C=C1C(=O)OC2C=C(C)CC3C=C(CCC=C(C)CCC12)C(=O)O3 (stereo unspecified)
CAKI-1
  GI50: 54.7 µM (inactive)
COLO 205
  GI50: 53.1 µM (inactive)
EKVX
  GI50: 62.4 µM (inactive)
HCC 2998
  GI50: 58.7 µM (inactive)
HL-60
  GI50: 15.7 µM (inactive)
HOP-92
  GI50: 52.8 µM (inactive)
K562
  GI50: 55.8 µM (inactive)
KM12
  GI50: 52.7 µM (inactive)
Malme-3M
  GI50: 46.1 µM (inactive)
NCI-H23
  GI50: 49.3 µM (inactive)
NCI-H522
  GI50: 17.3 µM (inactive)
OVCAR-5
  GI50: 101 µM (inactive)
SF-268
  GI50: 61.8 µM (inactive)
SK-MEL-2
  GI50: 53.3 µM (inactive)
SK-OV-3
  GI50: 121 µM (inactive)
SNB-19
  GI50: 122 µM (inactive)
U-251
  GI50: 65 µM (inactive)
UACC-257
  GI50: 43.1 µM (inactive)
UACC-62
  GI50: 54.2 µM (inactive)
UO-31
  GI50: 105 µM (inactive)

## CC(C)CNC1=NCC(C)S1 (stereo unspecified)
CAKI-1
  GI50: > 100 µM (inactive)
COLO 205
  GI50: > 100 µM (inactive)
EKVX
  GI50: > 100 µM (inactive)
HCC 2998
  GI50: > 100 µM (inactive)
HL-60
  GI50: > 100 µM (inactive)
HOP-92
  GI50: > 100 µM (inactive)
K562
  GI50: > 100 µM (inactive)
KM12
  GI50: > 100 µM (inactive)
Malme-3M
  GI50: > 100 µM (inactive)
NCI-H23
  GI50: > 100 µM (inactive)
NCI-H522
  GI50: > 100 µM (inactive)
OVCAR-5
  GI50: > 100 µM (inactive)
SF-268
  GI50: 74.8 µM (inactive)
SK-MEL-2
  GI50: > 100 µM (inactive)
SK-OV-3
  GI50: > 100 µM (inactive)
SNB-19
  GI50: > 100 µM (inactive)
U-251
  GI50: > 100 µM (inactive)
UACC-257
  GI50: > 100 µM (inactive)
UACC-62
  GI50: > 100 µM (inactive)
UO-31
  GI50: 79.3 µM (inactive)

## O=C1C(Cl)N(c2ccccc2Cl)C1c1c[nH]c2ccccc12 (stereo unspecified)
COLO 205
  GI50: > 100 µM (inactive)
EKVX
  GI50: > 100 µM (inactive)
HL-60
  GI50: > 100 µM (inactive)
HOP-92
  GI50: > 100 µM (inactive)
K562
  GI50: > 100 µM (inactive)
KM12
  GI50: > 100 µM (inactive)
Malme-3M
  GI50: > 100 µM (inactive)
NCI-H23
  GI50: > 100 µM (inactive)
NCI-H522
  GI50: > 100 µM (inactive)
SF-268
  GI50: > 100 µM (inactive)
SK-MEL-2
  GI50: > 100 µM (inactive)
SK-OV-3
  GI50: > 100 µM (inactive)
SNB-19
  GI50: > 100 µM (inactive)
U-251
  GI50: > 100 µM (inactive)
UACC-257
  GI50: > 100 µM (inactive)
UACC-62
  GI50: > 100 µM (inactive)
UO-31
  GI50: > 100 µM (inactive)

## CNC(=O)N(C)COC
CAKI-1
  GI50: > 100 µM (inactive)
COLO 205
  GI50: > 100 µM (inactive)
EKVX
  GI50: > 100 µM (inactive)
HCC 2998
  GI50: > 100 µM (inactive)
HL-60
  GI50: > 100 µM (inactive)
KM12
  GI50: > 100 µM (inactive)
Malme-3M
  GI50: > 100 µM (inactive)
NCI-H522
  GI50: > 100 µM (inactive)
OVCAR-5
  GI50: > 100 µM (inactive)
SF-268
  GI50: > 100 µM (inactive)
SK-MEL-2
  GI50: > 100 µM (inactive)
SK-OV-3
  GI50: > 100 µM (inactive)
SNB-19
  GI50: > 100 µM (inactive)
U-251
  GI50: > 100 µM (inactive)
UACC-257
  GI50: > 100 µM (inactive)
UACC-62
  GI50: > 100 µM (inactive)
UO-31
  GI50: > 100 µM (inactive)

## Cc1cn(Cc2cn(CC3OC(n4cc(C)c(=O)[nH]c4=O)CC3O)nn2)c(=O)[nH]c1=O (stereo unspecified)
CAKI-1
  GI50: > 100 µM (inactive)
COLO 205
  GI50: > 100 µM (inactive)
EKVX
  GI50: > 100 µM (inactive)
HCC 2998
  GI50: > 100 µM (inactive)
KM12
  GI50: > 100 µM (inactive)
Malme-3M
  GI50: > 100 µM (inactive)
NCI-H23
  GI50: > 100 µM (inactive)
OVCAR-5
  GI50: > 100 µM (inactive)
SF-268
  GI50: > 100 µM (inactive)
SK-MEL-2
  GI50: > 100 µM (inactive)
SK-OV-3
  GI50: > 100 µM (inactive)
SNB-19
  GI50: > 100 µM (inactive)
U-251
  GI50: > 100 µM (inactive)
UACC-257
  GI50: > 100 µM (inactive)
UACC-62
  GI50: > 100 µM (inactive)
UO-31
  GI50: > 100 µM (inactive)

## O=C(O)CN1CCN(CC(=O)O)CCN(CC(=O)O)CC1
CAKI-1
  GI50: 8890 µM (inactive)
COLO 205
  GI50: 2.57 µM (inactive)
EKVX
  GI50: 59.2 µM (inactive)
HCC 2998
  GI50: 3.15 µM (inactive)
HL-60
  GI50: 1.69 µM (inactive)
HOP-92
  GI50: 38.2 µM (inactive)
K562
  GI50: 2.31 µM (inactive)
KM12
  GI50: 5.81 µM (inactive)
Malme-3M
  GI50: > 28.7 µM (inactive)
NCI-H23
  GI50: 28.6 µM (inactive)
NCI-H522
  GI50: 5.22 µM (inactive)
OVCAR-5
  GI50: > 32 µM (inactive)
SF-268
  GI50: 23.6 µM (inactive)
SK-MEL-2
  GI50: > 43.3 µM (inactive)
SK-OV-3
  GI50: 8.38 µM (inactive)
SNB-19
  GI50: > 100 µM (inactive)
U-251
  GI50: 16.4 µM (inactive)
UACC-257
  GI50: 58.7 µM (inactive)
UACC-62
  GI50: 7.98 µM (inactive)
UO-31
  GI50: 83.8 µM (inactive)

## O=c1c2cccnc2oc2c(Cl)cc(-c3nnn[nH]3)cc12
CAKI-1
  GI50: > 100 µM (inactive)
COLO 205
  GI50: > 100 µM (inactive)
EKVX
  GI50: > 100 µM (inactive)
HCC 2998
  GI50: > 100 µM (inactive)
HL-60
  GI50: > 100 µM (inactive)
HOP-92
  GI50: 68.7 µM (inactive)
K562
  GI50: > 100 µM (inactive)
KM12
  GI50: > 100 µM (inactive)
Malme-3M
  GI50: > 100 µM (inactive)
NCI-H23
  GI50: > 100 µM (inactive)
OVCAR-5
  GI50: > 100 µM (inactive)
SF-268
  GI50: > 100 µM (inactive)
SK-MEL-2
  GI50: > 100 µM (inactive)
SK-OV-3
  GI50: > 100 µM (inactive)
SNB-19
  GI50: > 100 µM (inactive)
UACC-62
  GI50: > 100 µM (inactive)
UO-31
  GI50: 24.7 µM (inactive)

## CC1OC(CO)(n2cnc3c(N)ncnc32)C(O)C1O (stereo unspecified)
CAKI-1
  GI50: > 100 µM (inactive)
COLO 205
  GI50: > 100 µM (inactive)
EKVX
  GI50: > 100 µM (inactive)
HCC 2998
  GI50: > 100 µM (inactive)
HL-60
  GI50: > 100 µM (inactive)
HOP-92
  GI50: > 100 µM (inactive)
K562
  GI50: > 100 µM (inactive)
KM12
  GI50: > 100 µM (inactive)
Malme-3M
  GI50: > 100 µM (inactive)
NCI-H23
  GI50: > 100 µM (inactive)
NCI-H522
  GI50: > 100 µM (inactive)
OVCAR-5
  GI50: > 100 µM (inactive)
SF-268
  GI50: > 100 µM (inactive)
SK-MEL-2
  GI50: > 100 µM (inactive)
SK-OV-3
  GI50: > 100 µM (inactive)
SNB-19
  GI50: > 100 µM (inactive)
U-251
  GI50: > 100 µM (inactive)
UACC-257
  GI50: > 100 µM (inactive)
UACC-62
  GI50: > 100 µM (inactive)
UO-31
  GI50: > 100 µM (inactive)

## C=C(/C=C/C=C(\C)CCC=C(C)C)[C@@H]1CC[C@]2([C@H](CCCO)/C(=C(/C)C=O)CC[C@]2(C)O)[C@@H]1O
CAKI-1
  GI50: 28 µM (inactive)
COLO 205
  GI50: 11 µM (inactive)
EKVX
  GI50: 22.4 µM (inactive)
HCC 2998
  GI50: 20.9 µM (inactive)
HL-60
  GI50: 11.5 µM (inactive)
HOP-92
  GI50: < 0.01 µM (active)
K562
  GI50: 11.2 µM (inactive)
KM12
  GI50: 1.41 µM (inactive)
Malme-3M
  GI50: 11.8 µM (inactive)
NCI-H23
  GI50: 19.5 µM (inactive)
NCI-H522
  GI50: 16.7 µM (inactive)
OVCAR-5
  GI50: 61.8 µM (inactive)
SF-268
  GI50: 19.2 µM (inactive)
SK-MEL-2
  GI50: 20.2 µM (inactive)
SK-OV-3
  GI50: > 100 µM (inactive)
SNB-19
  GI50: 22.2 µM (inactive)
U-251
  GI50: 14.9 µM (inactive)
UACC-257
  GI50: 22.6 µM (inactive)
UO-31
  GI50: 19.5 µM (inactive)
